This is an account of results in patent US12595438B2, “Biodegradable quaternary ammonium compound” (GALAXY SURFACTANTS LTD., priority 2021, dated 2026).

What all share (format): cell-based
One test has as its system C. albicans ATCC 10231. The test is described as follows: MIC determination, test tube method. Particulars: tryptic soy broth, 22.5° C. for 48-72 hours. An excerpt:
(§1) The Minimum Inhibitory concentration (MIC) is the lowest dilution which inhibits the growth of microorganism. MIC assays generate a value in μg/mL for the exact, lowest concentration of the antimicrobial agent that prevents the visible growth of bacteria. MIC was detected by using test tube method using different dilution in sterile tryptic soya broth (growth medium). (Ref.: https://www.ncbi.nlm.nih.gov/pmc/articles/PMC7470068/ this link describes about Test tube method of MIC)
(§2) • Working stock preparation: 1% in sterile D/W • Diluent: Sterile tryptic soy broth • Dilution range: 0.1% to 1%, further diluted to 100 ppm to 1000 ppm • Addition of culture: 0.1 mL of 18-24 hours old culture • Incubation temperature and time: • Bacteria: 37° C. for 24-48 hours • Y/M: 22.5° C. for 48-72 hours
(§3) Antimicrobial efficacy of diamidoquat was studied as per MIC standard protocol.

A further test deals with A. niger ATCC 16404. The test is described as follows: MIC determination, test tube method. Particulars: tryptic soy broth, 22.5° C. for 48-72 hours.
Excerpt: as §1, §2, §3

The subject of the next test is E. coli ATCC 10142. The test can be described thus: MIC determination, test tube method. Particulars: tryptic soy broth, 37° C. for 24-48 hours.
Excerpt: as §1, §2, §3

A further test relates to S. aureus ATCC 6538. The test is described as follows: MIC determination, test tube method. To be noted: tryptic soy broth, 37° C. for 24-48 hours.
Excerpt: as §1, §2, §3

Another test deals with P. aeruginosa ATCC 9372. The test can be described thus: MIC determination, test tube method. To be noted: tryptic soy broth, 37° C. for 24-48 hours.
Excerpt: as §1, §2
(§4) The minimum inhibitory concentration (MIC) of Diamidoquat (DAQ), Benzalkonium chloride (BKC) and Esterquat (EQ) is shown in Table 1.
as §3

In a further test the test system is Test Organism. The test can be described thus: Overall MIC over all test organisms.
Excerpt: as §1, §2, §4, §3

As to Benzalkonium chloride [BKC], the MIC was found to be 0.7% against C. albicans ATCC 10231; 0.7% in the test on A. niger ATCC 16404; 0.7% in the test on E. coli ATCC 10142; 0.6% against S. aureus ATCC 6538; 0.7% in the test with P. aeruginosa ATCC 9372. Further, the “Overall MIC” value in the test with Test Organism is given as 0.7%.
